Measured values: patent publication USRE50724E1, “4-membered ring carboxamides used as nematicides” (SYNGENTA CROP PROTECTION AG, priority 2013, dated 2026)

What follows are compounds tested on Heterodera schachtii (assay: Heterodera schachtii (sugar beet cyst nematode), nematicide, contact activity: juvenile paralysis in 16-well assay plates). Conditions: 200 ppm, approx. 500 juveniles per well, 24 hours incubation at 25° C. in darkness, read-out: nematode immobilization compared to the untreated control.
Assay type: in vivo
Method: Heterodera schachtii (Sugar Beet Cyst Nematode), Nematicide, Contact Activity
The tested application rate of each compound was 200 ppm. All solutions were brought to a concentration of 400 ppm, respectively, as they were subsequently diluted by adding the equivalent amount of water containing juvenile nematodes. After preparation of the suspensions, 1 ml of each suspension and concentration was transferred to 16-well assay plates with a total of three replicates per treatment. Approximately 500 juveniles of Heterodera schachtii were added in 1 ml of water to each well. Nematodes in water served as controls. The plates were placed in a dark box and stored at room temperature. Nematode paralysis was determined after 24 hours incubation at 25° C. in darkness.
In the case of `O=C(N[C@H]1CC[C@H]1c1ccc(Cl)cc1Cl)c1nccnc1Cl` [Compound 61.3, 3-chloro-N-[(1S,2S)-2-(2,4-dichlorophenyl)cyclobutyl]pyrazine-2-carboxamide], the pest or weed control at 200 ppm is reported as > 75%. `O=C(N[C@H]1CC[C@H]1c1ccc(Cl)cc1Cl)c1ncccc1C(F)(F)F` [Compound 61.4, N-[(1S,2S)-2-(2,4-dichlorophenyl)cyclobutyl]-3-(trifluoromethyl)pyridine-2-carboxamide] was tested, and the pest or weed control at 200 ppm was > 75%. In the case of `COc1cccnc1C(=O)N[C@H]1CC[C@H]1c1ccc(Cl)cc1` [Compound 61.11, N-[(1S,2S)-2-(4-chlorophenyl)cyclobutyl]-3-methoxypyridine-2-carboxamide], the pest or weed control at 200 ppm is reported as > 75%. With `O=C(N[C@H]1CC[C@H]1c1ccc(Cl)cc1)c1sccc1Br` [Compound 61.14, 3-bromo-N-[(1S,2S)-2-(4-chlorophenyl)cyclobutyl]thiophene-2-carboxamide] the pest or weed control at 200 ppm was > 75%. For `O=C(N[C@H]1CC[C@H]1c1ccc(Cl)cc1)c1ncccc1Br` [Compound 61.15, 3-bromo-N-[(1S,2S)-2-(4-chlorophenyl)cyclobutyl]pyridine-2-carboxamide], the pest or weed control at 200 ppm was > 75%. In the case of `O=C(N[C@H]1CC[C@H]1c1ccc(Cl)cc1)c1ccccc1Br` [Compound 61.21, 2-bromo-N-[(1S,2S)-2-(4-chlorophenyl)cyclobutyl]benzamide], the pest or weed control at 200 ppm is reported as > 75%. For `O=C(N[C@H]1CC[C@H]1c1ccc(Cl)cc1)c1c(F)cccc1Cl` [Compound 61.22, 2-chloro-N-[(1S,2S)-2-(4-chlorophenyl)cyclobutyl]-6-fluorobenzamide], the pest or weed control at 200 ppm was > 75%. In the case of `Cc1ncccc1C(=O)N[C@H]1CC[C@H]1c1ccc(Cl)cc1` [Compound 61.23, N-[(1S,2S)-2-(4-chlorophenyl)cyclobutyl]-2-methylpyridine-3-carboxamide], the pest or weed control at 200 ppm is reported as > 75%. `COc1cccc(F)c1C(=O)N[C@H]1CC[C@H]1c1ccc(Cl)cc1` [Compound 61.24, N-[(1S,2S)-2-(4-chlorophenyl)cyclobutyl]-2-fluoro-6-methoxybenzamide] was tested, and the pest or weed control at 200 ppm was > 75%. In the case of `Cc1cccc(F)c1C(=O)N[C@H]1CC[C@H]1c1ccc(Cl)cc1` [Compound 61.25, N-[(1S,2S)-2-(4-chlorophenyl)cyclobutyl]-2-fluoro-6-methylbenzamide], the pest or weed control at 200 ppm is reported as > 75%. With `Cc1nccnc1C(=O)N[C@H]1CC[C@H]1c1ccc(Cl)cc1` [Compound 61.26, N-[(1S,2S)-2-(4-chlorophenyl)cyclobutyl]-3-methylpyrazine-2-carboxamide] the pest or weed control at 200 ppm was > 75%. For `O=C(N[C@H]1CC[C@H]1c1ccc(Cl)cc1)c1sccc1Cl` [Compound 61.36, 3-chloro-N-[(1S,2S)-2-(4-chlorophenyl)cyclobutyl]thiophene-2-carboxamide], the pest or weed control at 200 ppm was > 75%. With `O=C(N[C@H]1CC[C@H]1c1ccc(Cl)cc1)c1ncccc1Cl` [Compound 61.46, 3-chloro-N-[(1S,2S)-2-(4-chlorophenyl)cyclobutyl]pyridine-2-carboxamide] the pest or weed control at 200 ppm was > 75%. `O=C(N[C@H]1CC[C@H]1c1ccc(Cl)cc1)c1ncccn1` [Compound 61.47, N-[(1S,2S)-2-(4-chlorophenyl)cyclobutyl]pyrimidine-2-carboxamide] was tested, and the pest or weed control at 200 ppm was > 75%. `O=C(N[C@H]1CC[C@H]1c1ccc(Cl)cc1)c1ccsc1Cl` [Compound 61.52, 2-chloro-N-[(1S,2S)-2-(4-chlorophenyl)cyclobutyl]thiophene-3-carboxamide] was tested, and the pest or weed control at 200 ppm was > 75%. For `O=C(N[C@H]1CC[C@H]1c1ccc(Cl)cc1)c1ccsc1I` [Compound 61.53, N-[(1S,2S)-2-(4-chlorophenyl)cyclobutyl]-2-iodothiophene-3-carboxamide], the pest or weed control at 200 ppm was > 75%. `O=C(N[C@H]1CC[C@H]1c1ccc(Cl)cc1)c1ccsc1C(F)(F)F` [Compound 61.54, N-[(1S,2S)-2-(4-chlorophenyl)cyclobutyl]-2-(trifluoromethyl)thiophene-3-carboxamide] was tested, and the pest or weed control at 200 ppm was > 75%. `COc1cccnc1C(=O)N[C@H]1CC[C@H]1c1ccc(Cl)cc1Cl` [Compound 61.56, N-[(1S,2S)-2-(2,4-dichlorophenyl)cyclobutyl]-3-methoxypyridine-2-carboxamide] was tested, and the pest or weed control at 200 ppm was > 75%. With `COc1ccccc1C(=O)N[C@H]1CC[C@H]1c1ccc(Cl)cc1Cl` [Compound 61.58, N-[(1S,2S)-2-(2,4-dichlorophenyl)cyclobutyl]-2-methoxybenzamide] the pest or weed control at 200 ppm was > 75%. `O=C(N[C@H]1CC[C@H]1c1ccc(Cl)cc1Cl)c1sccc1Br` [Compound 61.59, 3-bromo-N-[(1S,2S)-2-(2,4-dichlorophenyl)cyclobutyl]thiophene-2-carboxamide] was tested, and the pest or weed control at 200 ppm was > 75%. In the case of `Cc1ccccc1C(=O)N[C@H]1CC[C@H]1c1ccc(Cl)cc1Cl` [Compound 61.62, N-[(1S,2S)-2-(2,4-dichlorophenyl)cyclobutyl]-2-methylbenzamide], the pest or weed control at 200 ppm is reported as > 75%. For `O=C(N[C@H]1CC[C@H]1c1ccc(Cl)cc1Cl)c1ccccc1F` [Compound 61.65, N-[(1S,2S)-2-(2,4-dichlorophenyl)cyclobutyl]-2-fluorobenzamide], the pest or weed control at 200 ppm was > 75%. With `Cc1nccnc1C(=O)N[C@H]1CC[C@H]1c1ccc(Cl)cc1Cl` [Compound 61.70, N-[(1S,2S)-2-(2,4-dichlorophenyl)cyclobutyl]-3-methylpyrazine-2-carboxamide] the pest or weed control at 200 ppm was > 75%. For `O=C(N[C@H]1CC[C@H]1c1ccc(Cl)cc1Cl)c1ccc[nH]1` [Compound 61.72, N-[(1S,2S)-2-(2,4-dichlorophenyl)cyclobutyl]-1H-pyrrole-2-carboxamide], the pest or weed control at 200 ppm was > 75%. `Cc1ncoc1C(=O)N[C@H]1CC[C@H]1c1ccc(Cl)cc1Cl` [Compound 61.73, N-[(1S,2S)-2-(2,4-dichlorophenyl)cyclobutyl]-4-methyl-1,3-oxazole-5-carboxamide] was tested, and the pest or weed control at 200 ppm was > 75%. `Cc1nscc1C(=O)N[C@H]1CC[C@H]1c1ccc(Cl)cc1Cl` [Compound 61.74, N-[(1S,2S)-2-(2,4-dichlorophenyl)cyclobutyl]-3-methyl-1,2-thiazole-4-carboxamide] was tested, and the pest or weed control at 200 ppm was > 75%. `O=C(N[C@H]1CC[C@H]1c1ccc(Cl)cc1Cl)c1sccc1Cl` [Compound 61.79, 3-chloro-N-[(1S,2S)-2-(2,4-dichlorophenyl)cyclobutyl]thiophene-2-carboxamide] was tested, and the pest or weed control at 200 ppm was > 75%. For `O=C(N[C@H]1CC[C@H]1c1ccc(Cl)cc1Cl)c1ccccc1OC(F)(F)F` [Compound 61.81, N-[(1S,2S)-2-(2,4-dichlorophenyl)cyclobutyl]-2-(trifluoromethoxy)benzamide], the pest or weed control at 200 ppm was > 75%. In the case of `Cc1oncc1C(=O)N[C@H]1CC[C@H]1c1ccc(Cl)cc1Cl` [Compound 61.83, N-[(1S,2S)-2-(2,4-dichlorophenyl)cyclobutyl]-5-methyl-1,2-oxazole-4-carboxamide], the pest or weed control at 200 ppm is reported as > 75%. `O=C(N[C@H]1CC[C@H]1c1ccc(Cl)cc1Cl)c1c(F)cccc1C(F)(F)F` [Compound 61.84, N-[(1S,2S)-2-(2,4-dichlorophenyl)cyclobutyl]-2-fluoro-6-(trifluoromethyl)benzamide] was tested, and the pest or weed control at 200 ppm was > 75%. With `O=C(N[C@H]1CC[C@H]1c1ccc(Cl)cc1Cl)C1=C(C(F)(F)F)OCCS1` [Compound 61.85, N-[(1S,2S)-2-(2,4-dichlorophenyl)cyclobutyl]-6-(trifluoromethyl)-2,3-dihydro-1,4-oxathiine-5-carboxamide] the pest or weed control at 200 ppm was > 75%.
